Target: T1, Human TRPV3 expressing CHO cells (Homo sapiens, UniProt Q8NET8)
T1 construct: expressed in transfected cells; host or cells: CHO cells, kept under G-418 selection
T1 sequence (Q8NET8 1-790): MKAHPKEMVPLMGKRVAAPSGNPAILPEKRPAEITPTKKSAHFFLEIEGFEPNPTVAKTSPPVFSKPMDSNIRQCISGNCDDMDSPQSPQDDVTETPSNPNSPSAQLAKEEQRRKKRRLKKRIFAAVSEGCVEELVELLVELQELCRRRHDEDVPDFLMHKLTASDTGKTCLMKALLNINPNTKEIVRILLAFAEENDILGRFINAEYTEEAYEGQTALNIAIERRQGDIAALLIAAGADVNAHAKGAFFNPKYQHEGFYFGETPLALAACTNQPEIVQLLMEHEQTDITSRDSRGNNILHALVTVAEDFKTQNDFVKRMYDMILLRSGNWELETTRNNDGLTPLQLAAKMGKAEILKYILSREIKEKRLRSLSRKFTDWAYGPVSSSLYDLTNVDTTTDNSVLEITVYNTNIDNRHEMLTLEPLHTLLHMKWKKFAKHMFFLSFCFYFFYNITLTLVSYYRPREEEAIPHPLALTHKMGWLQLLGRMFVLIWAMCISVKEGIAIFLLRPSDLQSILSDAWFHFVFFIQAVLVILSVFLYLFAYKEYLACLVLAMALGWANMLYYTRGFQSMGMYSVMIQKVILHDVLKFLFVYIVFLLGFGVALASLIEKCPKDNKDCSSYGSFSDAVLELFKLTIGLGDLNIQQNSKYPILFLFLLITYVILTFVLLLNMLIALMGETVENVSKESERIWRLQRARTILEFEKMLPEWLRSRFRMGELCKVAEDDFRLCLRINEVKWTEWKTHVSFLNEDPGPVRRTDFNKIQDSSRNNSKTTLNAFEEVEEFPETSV
Assay: 45Calcium uptake assay: inhibition of 2-APB induced cellular uptake of radioactive calcium
Assay type: cell-based
Conditions: 2-APB 500 μM
From the text: Certain illustrative compounds within the scope of the present invention are screened for TRPV3 activity according to a modified procedure described in (a) Tóth, A. et al. Life Sciences 2003, 73, 487-498. (b) McNamara C, R. et al. Proc. Natl. Acad. Sci. U.S.A., 2007, 104, 13525-13530. The screening of the compounds may be carried out by other methods and procedures known to persons skilled in the art.
Screening for TRPV3 Antagonist Using the ^45Calcium Uptake Assay
The inhibition of TRPV3 receptor activation was followed as inhibition of 2-aminoethxydiphenylborate (2-APB) induced cellular uptake of radioactive calcium. Test compounds were dissolved in dimethyl sulfoxide (DMSO) to prepare 20 mM stock solution and then diluted using plain medium with DMEM/F-12 containing 1.8 mM CaCl2 to get desired concentration. Final concentration of DMSO in the reaction was 0.5% (v/v). Human TRPV3 expressing CHO cells were grown in DMEM/F-12 medium with 10% FBS, 1% penicillin-streptomycin solution, 400 μg/mL of G-418. Cells were seeded 24 h prior to the assay in 96 well plates so as to get ˜50,000 cells per well on the day of experiment. Cells were treated with test compounds for 10 minutes followed by addition of 2-APB at a final concentration of 500 μM and 5 μCi/mL ^45Ca^+2 for 4 minutes. Cells were washed and lysed using buffer containing 1% Triton X-100, 0.1% deoxycholate and 0.1% SDS. Radioactivity in the lysate was measured in Packardt Top count after addition of liquid scintillant. Concentration response curves were plotted as a % of maximal response obtained in the absence of test antagonist. IC50 value was calculated from concentration response curve by nonlinear regression analysis using GraphPad PRISM software.
Percentage inhibition at concentrations of 1.0 μM and 10.0 μM are given in the table along with IC50 (nM) details for selected examples.

CC(C)(C)COc1c(/C=C/c2nc3ccccn3c2C(=O)Nc2nc(C3CC3)cs2)cccc1OC(F)F [Example 39, 2-{(E)-2-[2-(2,2-Dimethylpropoxy)-3-(difluoromethoxy)phenyl]vinyl}-N-(4-cyclo-propyl-1,3-thiazol-2-yl)imidazo[1,2-a]pyridine-3-carboxamide]
inhibition at 1 µM (compound at 1.0 μM, read-out: Percentage inhibition at 1.0 μM): 76.1%
inhibition at 10 µM (compound at 10.0 μM, read-out: Percentage inhibition at 10.0 μM): 58.7%

CC(C)(C)COc1c(/C=C/c2nc3ccccn3c2C(=O)Nc2nc(C3CCC3)cs2)cccc1OC(F)F [Example 40, N-(4-Cyclobutyl-1,3-thiazol-2-yl)-2-{(E)-2-[3-(difluoromethoxy)-2-(2,2-dimethyl-propoxy)phenyl]vinyl}imidazo[1,2-c]pyridine-3-carboxamide]
Percentage inhibition at 1.0 μM (compound at 1.0 μM): 56.41%
Percentage inhibition at 10.0 μM (compound at 10.0 μM): 72.35%

CC(C)CCOc1c(/C=C/c2nc3ccccn3c2C(=O)Nc2nc(C(F)(F)F)cs2)cccc1OC(F)F [Example 41, 2-{(E)-2-[3-(Difluoromethoxy)-2-(3-methylbutoxy)phenyl]vinyl}-N-[4-(trifluoromethyl)-1,3-thiazol-2-yl]imidazo[1,2-c]pyridine-3-carboxamide]
Percentage inhibition at 1.0 μM (compound at 1.0 μM): 52.99%
Percentage inhibition at 10.0 μM (compound at 10.0 μM): 84.65%
